Measurements published in PubChem BioAssay (NCI).
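Where inhibition never reached the appropriate level, the endpoint shown equals the highest concentration tested. Otherwise, values were interpolated linearly from a five-concentration, 48-hour dose response in 96-well plates. GI50 is the concentration that inhibits growth by half. TGI denotes the concentration required for complete inhibition of growth.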

How the values were obtained:
Assay in all cases: DTP human tumour cell line panel, 48 h
SK-OV-3 ovarian = tested on: SK-OV-3 ovarian
NCI-H23 lung = tested on: NCI-H23 lung
SF-268 CNS = tested on: SF-268 CNS
HOP-92 NSCLC = tested on: HOP-92 NSCLC
A498 renal = tested on: A498 renal
M14 melanoma = tested on: M14 melanoma
COLO 205 colon = tested on: COLO 205 colon
SN12C renal = tested on: SN12C renal
DU-145 prostate = tested on: DU-145 prostate
PC-3 prostate = tested on: PC-3 prostate

| Compound | TGI (SK-OV-3 ovarian) | TGI (NCI-H23 lung) | TGI (SF-268 CNS) | TGI (HOP-92 NSCLC) | TGI (A498 renal) | TGI (M14 melanoma) | TGI (COLO 205 colon) | TGI (SN12C renal) | GI50 (SK-OV-3 ovarian) | GI50 (DU-145 prostate) | TGI (DU-145 prostate) | GI50 (NCI-H23 lung) | GI50 (PC-3 prostate) | TGI (PC-3 prostate) | GI50 (SF-268 CNS) | GI50 (SN12C renal) | GI50 (A498 renal) | GI50 (COLO 205 colon) | GI50 (M14 melanoma) | GI50 (HOP-92 NSCLC) |
| --- | --- | --- | --- | --- | --- | --- | --- | --- | --- | --- | --- | --- | --- | --- | --- | --- | --- | --- | --- | --- |
| OCCC1(O)CCC(O)CC1 (stereo not drawn) | > 100 µM | > 100 µM | > 100 µM | > 100 µM | > 100 µM | > 100 µM | > 100 µM | – | – | – | – | – | – | – | – | – | – | – | – | – |
| COC1C(CN[N+](=O)CC2OC3OC(C)(C)OC3C2OC)OC2OC(C)(C)OC21 (stereo not drawn) | > 100 µM | > 100 µM | > 100 µM | > 100 µM | > 100 µM | > 100 µM | > 100 µM | > 100 µM | – | – | – | – | – | – | – | – | – | – | – | – |
| CC1=C(C(=O)Nc2ccc([N+](=O)[O-])cc2)C(c2ccc(N(C)C)cc2)C(C(=O)Nc2ccc([N+](=O)[O-])cc2)=C(C)N1 | 80 µM | 52.8 µM | 96.1 µM | 47.7 µM | 81.8 µM | 40.9 µM | 33.7 µM | – | – | – | – | – | – | – | – | – | – | – | – | – |
| C=C(CN1CCc2ccccc2C1)c1ccc(C(=O)Nc2cnccn2)cc1 | 84.5 µM | > 100 µM | > 100 µM | – | > 100 µM | – | 40.1 µM | > 100 µM | 24.3 µM | 30.1 µM | 89.7 µM | 18.4 µM | 1.86 µM | > 100 µM | 60.4 µM | 50.4 µM | 33.4 µM | 17.5 µM | – | – |
| COc1cc(C2c3cc4c(cc3C(NCC(O)CO)C3COC(=O)[C@H]23)OCO4)cc(OC)c1OC (stereo partly drawn) | > 100 µM | 0.797 µM | > 100 µM | – | – | > 100 µM | 0.364 µM | > 100 µM | – | – | – | – | – | – | – | – | – | – | – | – |
| COc1cc(OC)cc(-c2ccc(-c3ccc(C(=N)N)o3)o2)c1 | 28.5 µM | 22.3 µM | 13.2 µM | – | 15.3 µM | 4.36 µM | 3.79 µM | 5.15 µM | 14.9 µM | 4.28 µM | 15.2 µM | 9.25 µM | 4.77 µM | 17.5 µM | 3.4 µM | 2.38 µM | 2.89 µM | 1.84 µM | 2.07 µM | – |
| Cc1nc2c(nc1Cl)nc(Oc1ccc(Cl)cc1)c1ccccc12 | > 100 µM | 85 µM | > 100 µM | – | – | > 100 µM | > 100 µM | > 100 µM | – | – | – | – | – | – | – | – | – | – | – | – |
| COC(=O)C(=O)C(C(=O)C=C(C)C)C(=O)C(=O)Nc1cc(C(F)(F)F)ccc1Cl (stereo not drawn) | > 100 µM | > 100 µM | > 100 µM | > 100 µM | > 100 µM | > 100 µM | > 100 µM | > 100 µM | – | – | – | – | – | – | – | – | – | – | – | – |
| CCOc1ccc2c(c1)[n+]([O-])c(S(=O)(=O)c1ccc(C)cc1)c(N)[n+]2[O-] | > 100 µM | > 100 µM | > 100 µM | > 100 µM | > 100 µM | > 100 µM | > 100 µM | – | – | – | – | – | – | – | – | – | – | – | – | – |
| O=C1c2c(c3c4ccccc4n(CCCCCCBr)c3c3[nH]c4ccccc4c23)C(=O)N1O | 10.4 µM | 7.09 µM | 18.3 µM | 6.7 µM | 9.14 µM | 7.68 µM | 4.7 µM | 12.8 µM | 2.87 µM | 4.01 µM | 15.2 µM | 2.23 µM | – | – | 3.48 µM | 3.68 µM | 2.89 µM | 1.97 µM | 2.07 µM | 2.22 µM |
| O=C(O)Cn1ccc(=O)c2ccc([N+](=O)[O-])cc21 | > 100 µM | > 100 µM | > 100 µM | – | > 100 µM | > 100 µM | > 100 µM | > 100 µM | – | – | > 100 µM | – | – | > 100 µM | – | – | – | – | – | – |
| CC1(C)CC(/C=C2/OC(=O)c3ccccc32)=C(C#N)C(=O)O1 | > 100 µM | > 100 µM | > 100 µM | – | – | > 100 µM | > 100 µM | > 100 µM | – | – | – | – | – | – | – | – | – | – | – | – |
| N#CC(C(=N/O)/C(=N/O)C(C#N)c1ccc(Cl)cc1)c1ccc(Cl)cc1 (stereo not drawn) | > 100 µM | > 100 µM | > 100 µM | > 100 µM | > 100 µM | > 100 µM | > 100 µM | > 100 µM | – | – | – | – | – | – | – | – | – | – | – | – |
| CCCCNC1=C(C(=O)OCC)C(=O)CO1 | > 100 µM | > 100 µM | > 100 µM | – | – | > 100 µM | > 100 µM | > 100 µM | – | – | – | – | – | – | – | – | – | – | – | – |
| Cc1cc2c(cc1C)[n+](=O)c(C(=O)CC(=O)C(=O)Nc1c(C(C)C)cccc1C(C)C)c(C)n2[O-] | > 100 µM | > 100 µM | > 100 µM | > 100 µM | > 100 µM | > 100 µM | > 100 µM | > 100 µM | – | – | – | – | – | – | – | – | – | – | – | – |
| O=C1/C(=C/c2ccc(Cl)cc2Cl)N=C(c2ccccc2)N1Cc1ccco1 | – | 81.6 µM | 49.5 µM | 47.4 µM | 61 µM | > 100 µM | – | 36.1 µM | – | 21.1 µM | 51 µM | 26.2 µM | 30.8 µM | 93.9 µM | 20.2 µM | 18.7 µM | 22.3 µM | – | 29.1 µM | 20.7 µM |
| N=C1CSC2=NC3=C(CCC/C3=C\c3ccccc3)C(c3ccccc3)N12 (stereo not drawn) | 28.4 µM | 15.6 µM | 32.9 µM | – | 27.6 µM | 13 µM | 21.3 µM | 27.9 µM | – | – | – | – | – | – | – | – | – | – | – | – |
| COc1ccc2[nH]c3c(C)c4c(c(C)c3c2c1)CN(C)CC4 | 30 µM | – | 48.3 µM | 32.2 µM | 32.2 µM | 30.5 µM | 31.2 µM | 30.6 µM | – | – | – | – | – | – | – | – | – | – | – | – |
| COC(=O)C[C@H]1CCC2(OCCO2)[C@]1(C)C(=O)OC | > 100 µM | > 100 µM | > 100 µM | > 100 µM | > 100 µM | > 100 µM | > 100 µM | > 100 µM | – | – | – | – | – | – | – | – | – | – | – | – |
| COc1ccccc1C1C(C(=O)Nc2ccccc2)=C(C)NC(C)=C1C(=O)Nc1ccccc1 | > 100 µM | > 100 µM | > 100 µM | > 100 µM | 82.5 µM | > 100 µM | 65.2 µM | > 100 µM | – | – | – | – | – | – | – | – | – | – | – | – |
| COc1ccc2cc1Oc1ccc(cc1)CC1c3cc(c(OC)cc3CCN1C)Oc1c3c(cc4c1C(C2)N(C)CC4)OCO3 (stereo not drawn) | – | 31.9 µM | 22.5 µM | – | – | 3.52 µM | 18.4 µM | 23.7 µM | – | – | – | – | – | – | – | – | – | – | – | – |
| CC(=O)Nc1ccccc1Sc1ccccc1 | > 100 µM | > 100 µM | > 100 µM | > 100 µM | > 100 µM | > 100 µM | > 100 µM | > 100 µM | – | – | – | – | – | – | – | – | – | – | – | – |
| O=C1C=CC(=Nc2ccc3c(c2)C(Br)c2ccccc2-3)O1 (stereo not drawn) | > 100 µM | > 100 µM | > 100 µM | – | – | > 100 µM | > 100 µM | 49.9 µM | – | – | – | – | – | – | – | – | – | – | – | – |
